Type in all cases: functional
The species entered for assay [1] is Rattus norvegicus. The assay can be described thus: In vitro Inhibitory activity against prolactin release in anterior pituitary from adult female rats(Charles Rivers Labs), at a concentration of 2*10e-7M.
For assay [2], the species on record is Rattus norvegicus. As to the kind of experiment: In vitro Inhibitory activity against prolactin release in anterior pituitary from adult female rats(Charles Rivers Labs) at a concentration of 2*10e-8M.
For assay [3], the species on record is Rattus norvegicus. As to the kind of experiment: Percent decrease in serum prolactin concentration in male rats.
Assay [4] deals with Rattus norvegicus. As to the kind of experiment: In vitro Weight change in anterior pituitary after the administration of the compound.

Consider `C[n+]1cccc(C(=O)NCCc2ccc(O)c(O)c2)c1.[I-]`, for which the values for the Prolactin release rate in the assay filed under Rattus norvegicus [1] and in the assay listed under Rattus norvegicus [2] were 277 ng/mg/h and 386 ng/mg/h, respectively. In the assay listed under Rattus norvegicus [3], the Decrease was 67%. In addition, the “Weight change of AP-S” value in the assay with Rattus norvegicus [4] came to 4.7 mg.

For the compound `NCCc1ccc(O)c(O)c1` [DOPAMINE], the Prolactin release rate in the assay listed under Rattus norvegicus [2] came to 355 ng/mg/h.

Consider `CN1C=CCC(C(=O)NCCc2ccc(OC(=O)C(C)(C)C)c(OC(=O)C(C)(C)C)c2)=C1`, for which, in the assay filed under Rattus norvegicus [3], the Decrease is 79%.

(Values after ChEMBL document CHEMBL1122359, “Improved delivery through biological membranes. 13. Brain-specific delivery of dopamine with a dihydropyridine in equilibrium with pyridinium salt type redox delivery system” (1983).)
